Source: publication PMC10820089, “Comparative Studies on the Photoreactivity, Efficacy, and Safety of Depigmenting Agents” (Pharmaceuticals, 2023)
Several values for one entry are separate records, joined by “and”; a condition that tells them apart may be missing. Equal values may be shown once. Read-outs that look alike come from different tables or passages of the source.

Columns and labels:
[1] = UV-visible spectral analysis, molar extinction coefficient (MEC); format: physicochemical; conditions: at 290 nm; for Absorbance (10 µg mL^−1): 10 µg mL^−1 in methanol or 20 mM NaPB pH 7.4, 10 mm path length
Excerpt: The phototoxic potential of chemicals is related to the photochemical properties of compounds, especially light absorption within the range 290–700 nm and the generation of reactive species following absorption of UV-visible light. […] The studied depigmenting agents contain in their molecular structures π systems (some of them conjugated), phenolic and/or hydroxyl, carbonyl, and amine groups. The absorption peaks observed in the UV-visible spectra can be assigned to π-π* and n-π* electronic transitions.
As the wavelength of maximum absorbance obtained for all compounds was below 290 nm, the MEC value for each depigmenting compound was calculated at this wavelength (Table 1).
UV-visible spectral analysis was conducted as previously described. The depigmenting agents were dissolved in methanol or 20 mM sodium phosphate buffer (NaPB, pH 7.4) at 10 μg/mL (final concentration). The UV-visible absorption spectra were analyzed using a Shimadzu UV-1700 spectrophotometer (Shimadzu Corp., Kyoto, Japan) and UV-transparent quartz cuvettes (Hellma, Müllheim, Germany) with a 10 mm path length. Each spectrum was corrected for solvent-specific baseline absorption. Molar extinction coefficients (MEC) were calculated using the highest absorption peaks between 290 and 700 nm at 10 μM.

[2] = Cell viability (PrestoBlue) in B-16V melanocytes; conditions: mouse, B-16V melanocytes, IC50 for B-16V cell viability, 48 h treatment, 0–300 µM in DMSO
Description: (§1) Given that ABT is a glycosylated derivative of hydroquinone, there is a potential for the release of hydroquinone in vivo.
(§2) B-16V cells (DSMZ ACC-370, Braunschweig, Germany) were cultured in Dulbecco’s Modified Eagle’s Medium (DMEM) containing 3.7 g/L NaHCO3, 1.0 g/L d-glucose, 1 mM sodium pyruvate, and stable glutamine, supplemented with 10% (v/v) heat-inactivated fetal bovine serum (FBS), 50 U/mL penicillin, and 50 μg/mL streptomycin (all reagents from PAN-Biotech GmbH, Aidenbach, Germany). The cells were cultivated at 37 °C in a humidified atmosphere of 95% air and 5% CO2. Subculturing was performed twice a week, when the cells reached 70–80% confluence, through cell trypsinization with 0.25% Trypsin and 1 mM EDTA.4Na (PAN-Biotech GmbH, Aidenbach, Germany).
(§3) To evaluate cell viability, B-16V cells were seeded at a cell density of 3 × 10^4 cells/mL in 96-well plates and allowed to proliferate for 48 h. […] Then, PrestoBlue® reagent (Invitrogen, Waltham, MA, USA) was added to each well. When entering a living cell, the PrestoBlue® reagent is reduced from resazurin to resorufin, whose fluorescence is proportional to the number of metabolically active cells. Fluorescence was measured at an excitation/emission wavelength of 530/590 nm in an automated microplate reader (Synergy HT, Biotek Instruments Inc., Winooski, VT, USA).
(§4) GraphPad Prism 9.5.1 was used to fit non-linear regression to the data and calculate the IC50 values of depigmenting compounds for B-16V cell viability.

[3] = target: tyrosinase; conditions: cited from earlier work; for IC50: read-out: IC50 tyrosinase inhibition (literature)
[4] = test system: Tyrosinase from Agaricus bisporus; test: Tyrosinase inhibition assay (L-tyrosine substrate); format: biochemical; conditions: for % Inhib (150 µM) of tyrosinase activity: 150 µM compound, n = 3
Description: Sodium phosphate monobasic monohydrate was obtained from Fluka (Buchs, Switzerland). Sodium phosphate dibasic anhydrous and methanol were obtained from Carlo Erba Reagents (Val-de-Reuil, France). Imidazole, p-nitroso dimethylaniline (RNO), and nitro blue tetrazolium chloride (NBT) were purchased from Alfa Aesar (Ward Hill, MA, USA).
Tyrosinase inhibition assays were carried out as described in Rosa et al.. Briefly, 25 μL of tyrosinase enzyme solution (135 U/mL), 25 μL of ten serial concentrations of the compounds (dissolved in 0.1 M phosphate buffer pH 6.8 containing no more than 2.5% DMSO, yielding final concentrations of 0.3–150 μM), and 100 μL phosphate buffer were mixed in a 96-well plate and incubated at 37 ± 2 °C for 20 min. Then, 50 μL of 1.66 mM of tyrosine solution in 0.1 M phosphate buffer (pH 6.8) were added. Enzyme activity was measured at 490 nm every 10 min for 30 min in a Bio-Rad Model 680 Microplate Reader (Bio-Rad Laboratories, Inc., Hercules, CA, USA). In cases where the samples were very active at the minimum concentration tested, lower concentration ranges were assayed. […] The experiments were conducted in triplicate. For each concentration, enzyme activity was calculated as a percentage of the velocities compared to those of the assay using buffer without any inhibitor. […] The type of inhibition and inhibition parameters of the compounds, i.e., the Km and Vmax, were determined by Lineweaver–Burk plot analysis using various concentrations of L-tyrosine.

[5] = ROS assay for photoreactivity (singlet oxygen and superoxide anion generation); format: physicochemical; conditions: for ROS assay: superoxide anion (O2^•−) / ROS assay: singlet oxygen (^1O2): 200 µM final concentration, mean ± SEM, n = 2; for ROS assay: superoxide anion (O2^•−): cut-off O2^•− ≥ 20 = photoreactive; for ROS assay: singlet oxygen (^1O2): cut-off ^1O2 ≥ 25 = photoreactive; for Photoreactivity classification from ROS assay: photoreactive if SO ≥ 25 and/or SA ≥ 20
Description: In addition to light absorption, the generation of reactive species from chemicals following the absorption of UV-visible light is seen as a key determinant for causing direct phototoxic reactions. The ROS assay can be used as an in chemico screening tool for evaluating the photoreactivity of chemicals. […] These depigmenting agents were tested at 200 μM (final concentration) to identify precipitation, coloration, or any other interference in the reaction mixture.
The ROS assay was performed as previously described in Aguiar et al. and the OECD ROS assay for photoreactivity protocol. Stock solutions of all substances were prepared at 10 mM in DMSO or 20 mM sodium phosphate buffer (NaPB, pH 7.4) and used within the same day. SO generation was detected by spectrophotometric measurement of RNO bleaching, followed by a decrease in the absorbance of RNO at 440 nm. SA generation was detected by observing the reduction of NBT to NBT^+, the formation of which can be monitored spectrophotometrically at 560 nm. The depigmenting agents were tested at a final concentration of 200 μM. When precipitation was observable (using a microscope) before light exposure, a lower concentration (20 μM) of the depigmenting agents was tested.
Photoreactivity of the test substances was evaluated according to the result (mean of triplicate determinations) from the ROS assay: a test substance was classified as a photoreactive substance when an SO value of 25 or more and/or an SA value of 20 or more was measured; in turn, it was considered to be a non-photoreactive substance when values of less than 25 for SO and less than 20 for SA were recorded.

[6] = test system: B-16V melanocytes; test: Cell viability (PrestoBlue) in B-16V melanocytes; conditions: 48 h treatment, 10–1000 µM in water
Description: as §1, §2, §3, §4

[7] = test system: B16 mouse melanoma cells; conditions: cited from earlier work

Structure (SMILES) | MEC (molar extinction coefficient) [1] | Absorbance (10 µg mL^−1) [1] | % Inhib (150 µM) of tyrosinase activity [4] [%] | ROS assay: superoxide anion (O2^•−) [5] | ROS assay: singlet oxygen (^1O2) [5] | Photoreactivity classification from ROS assay [5] | further results
CCCCc1ccc(O)cc1O [4BR, 4-butylresorcinol] | ε = 3471 L mol^−1 cm^−1 | 0.2088 | 100 | 13 ± 1 | 1 ± 0 | non-photoreactive | IC50 at 48 h [2]: 97.6 ± 11.6 µM; IC50 [3]: 21 µM and 13.5 µM; Type of tyrosinase inhibition (Lineweaver-Burk plot) ([4]; Vmax constant, Km increases with inhibitor concentration): competitive inhibitor
O=C1O[C@H]([C@@H](O)CO)C(O)=C1O [AA, ascorbic acid, reference compound] | ε = 2793 L mol^−1 cm^−1 | 0.1586 | – | 26 | 671 | – | Effect on B-16V cell viability [6]: did not interfere with cell viability; Prevention of chromophore formation in tyrosinase assay ([4]; 150 µM, cannot be interpreted uniquely as tyrosinase inhibition): 58.70%
O=C1O[C@H]([C@@H](O)CO)C(O)=C1O[C@H]1O[C@H](CO)[C@@H](O)[C@H](O)[C@H]1O [AA-2G, ascorbyl glucoside] | ε = 1025 L mol^−1 cm^−1 | 0.0303 | 11.17 | 1 ± 0 | 1 ± 1 | non-photoreactive | –
OC[C@H]1O[C@H](Oc2ccc(O)cc2)[C@H](O)[C@@H](O)[C@@H]1O [ABT, α-arbutin] | ε = 2004 L mol^−1 cm^−1 | 0.0736 | 27.04 | 0 ± 0 | 19 ± 1 | cannot be classified as photoreactive | Percentage of tyrosinase inhibition (literature) ([3]; at 125 µM): ≈ 30%; Photoreactivity classification from ROS assay ([5]; listed as α-arbutin): non-photoreactive
C=C[C@@](C)(/C=C/c1ccc(O)cc1)CCC=C(C)C [BAK, bakuchiol] | – | 0.2203 | 52.59 | inconclusive | inconclusive | – | IC50 at 48 h [2]: 43.4 ± 0.9 µM; IC50 ([3]; at 1 mM of L-tyrosine): 37.2 ± 5.18 µM; Solubility / precipitation in ROS assay reaction mixture ([5]; DMSO or 20 mM NaPB pH 7.4, reaction mixture for SO and SA, 200 µM, lowest concentration 20 µM): showed precipitation in the reaction mixture
O=c1cc(CO)occ1O [Kojic acid, kojic acid, reference compound] | – | – | 99.15 | – | – | – | –
NC[C@H]1CC[C@H](C(=O)O)CC1 [TA, tranexamic acid, reference compound] | ε = 380 L mol^−1 cm^−1 | 0.0242 | 13.20 | – | – | – | Effect on B-16V cell viability [6]: did not interfere with cell viability
Oc1ccc(O)cc1 [hydroquinone] | – | – | – | – | – | – | Concentration achieving complete growth inhibition [7]: 1250 to 2500 ng/mL; Concentration initiating growth inhibition [7]: 625 ng/mL
